Assay results as given in patent publication US20250275929A1, “INTRAOPERATIVE TOPICALLY-APPLIED NON-IMPLANTABLE RAPID RELEASE PATCH” (PRIVO TECHNOLOGIES, INC., priority 2017, published 2025).

Assay: HPLC chromatograms of agent from patch and from gamma sterilized patch
Type: physicochemical
Excerpt: FIGS. 9A, 9B, and 9C are graphs showing that agent(s) included within a patch, according to embodiments of the present invention, are not modified when incorporated into the patch or when the patch is sterilized. FIG. 9A is a graph showing a high-performance liquid chromatography (H PLC) chromatogram of a cisplatin standard. FIG. 9B is a graph showing an HPLC chromatogram of a patch, which illustrates that the cisplatin was not modified.
The patch is sterilized prior to application to a surgical cavity, for example after the patch is manufactured and before packaging. In some embodiments, gamma sterilization is employed to sterilize the patch. FIGS. 9A-9C show HPLC chromatograms at various stages of product synthesis. The HPLC apparatus was an Agilent 1100 Series HPLC using a water/methanol/sodium lauryl sulfate solvent mixture adjusted to pH 2.5 with trifluoromethanesulfonic acid. FIG. 9A is an HPLC chromatogram of a cisplatin standard. FIG. 9B is an HPLC chromatogram of a cisplatin sample taken from a patch that was dissolved in a solution, which illustrates that the cisplatin was not modified while in the patch. […] Similar experiments were conducted using oxaliplatin and 5-fluorouracil. This experiment proves that the patches are able to be manufactured and sterilized while maintaining the integrity of the agent(s) included within.

N.N.[Cl][Pt][Cl] [cisplatin]
integrity of agent after gamma ray sterilization of patch (HPLC) (gamma ray sterilization for 25 minutes): not modified | integrity of agent while in the patch (HPLC) (sample taken from a patch dissolved in a solution): not modified
